Experimental data taken from patent US20070155012A1, “Method for production of neurons from cells of a cell line” (priority 2003, published 2007).

Test system: NT2 cells
Test: Response of NT2 cells to growth factors: count of viable spherical cells after three days of culture
Assay type: cell-based, human
Conditions: growth factor present exclusively in growth medium NS; viable cells counted after three days of culture into spheres; FIG. 3
Procedure: This step permits to obtain the first passing over into spheres of NT2 cells that are then cultured, preferably at 100000 cells/ml in 75 ml flasks of the FALCON™ (trademark registered by the Falcon company) type having filtering plugs containing 15 ml of growth medium (NS) not containing bovine serum, defined by the following composition: DMEM/F12 (50%/50%), 2 mM glutamine, N2 complement, 0.6% glucose, 20 μg/ml insulin, to which are added extemporaneously growth factors EGF at 20 ng/ml, bFGF at 10 ng/ml, 2 μg/ml heparin or growth factor LIF at 10 ng/ml or 20 n/ml.
The way NT2 cells respond to growth factors […] and bFGF was studied by counting viable spherical cells obtained after three days of culture in the presence either of the one or the other, either of the one and the other of them then dissociated.
Results represented in FIG. 3 show the number of viable cells after three days, whereas the horizontal line indicates culture density.
Although it was found, unexpectedly, that NT2 cells were capable of forming spheres in the absence of growth factors, they proliferate differently under the action of the latter, and according to the type of growth factors added to the growth medium NS.

EGF: epidermal growth factor, added to growth medium at 20 ng/ml
rate of proliferation of NT2 cells multiplied by (with respect to cultures without growth factor): 1.5

bFGF: basic fibroblast growth factor, added to growth medium at 10 ng/ml
rate of proliferation of NT2 cells multiplied by (with respect to cultures without growth factor): 2.2
